# Results published in the OPERA property sets (Mansouri et al. 2018).
# Settings: not given
SMILES,boiling point,log10 vapour pressure (mmHg),melting point,ready biodegradability,log10 Koc (L/kg),log10 Henry constant (atm·m³/mol),log10 Koa
CC1(O)CCCCC1,155 °C,0.0531,25 °C,–,–,–,–
C1=C\CC/C=C\CC/1,–,–,–,not readily biodegradable,–,–,–
COC(=O)c1ccccc1OC,246 °C,–,–,–,–,–,–
Oc1cccc(O)c1O,309 °C,-3.32,133 °C,readily biodegradable,–,–,–
O=[N+]([O-])c1ccccc1CO,270 °C,–,74 °C,–,–,–,–
CC(=O)Nc1ccc(Cl)c(Cl)c1,–,–,–,–,2.34,–,–
O=C1OC(=O)C2CC=CCC12 (centres undefined),–,–,–,not readily biodegradable,–,–,–
Cc1cccc2ccc(Cl)nc12,287 °C,–,61 °C,–,–,–,–
ClC1=C(Cl)C2(Cl)C3C4C=CC(C4)C3C1(Cl)C2(Cl)Cl (centres undefined),–,–,–,not readily biodegradable,–,–,–
CC1CCCS1 (centres undefined),134 °C,–,-101 °C,–,–,–,–
CCOc1cc(NC(C)=O)ccc1C(=O)OC,–,–,148 °C,–,–,–,–
c1ccc(-c2cnc(-c3ccc(-c4ncc(-c5ccccc5)o4)cc3)o2)cc1,–,–,245 °C,–,–,–,–
ClC(Cl)(Cl)C(Cl)(Cl)Cl,–,-0.678,187 °C,not readily biodegradable,–,-2.41,4.47
CCCCCCCCCCCCCCCCCCCCCCCCCCCCCCCCCCC,490 °C,-11.3,75 °C,readily biodegradable,–,–,–
N#CCc1ccc(N)cc1,312 °C,–,46 °C,–,–,–,–
O=C(O)CCCCCCCCCCCCC(=O)O,–,–,127 °C,readily biodegradable,–,–,–
OOC1CCCCC1,–,–,-20 °C,–,–,–,–
ClC(Br)Br,120 °C,–,-20 °C,not readily biodegradable,1.92,-3.11,3.59
CC(C)(Cl)Cl,69.3 °C,–,-33.8 °C,–,–,–,–
CCCN(CC)CC1COC2(CCC(C(C)(C)C)CC2)O1 (centres undefined),–,-3.89,–,–,–,–,–
CCCN(CC1CC1)c1c([N+](=O)[O-])cc(C(F)(F)F)cc1[N+](=O)[O-],–,-4.2,32.3 °C,–,4.01,–,–
COc1ccccc1C(=O)c1ccccc1,–,–,41 °C,–,–,–,–
CC(C)(O)C(=O)O,212 °C,-2.06,82.5 °C,–,–,–,–
CC(=O)O[C@@H]1C[C@H](C)CC[C@H]1C(C)C (racemic),228 °C,-0.983,–,–,–,–,–

SMILES,boiling point,log10 vapour pressure (mmHg),melting point,ready biodegradability,log10 Koc (L/kg),log10 Henry constant (atm·m³/mol),log10 Koa
C1OCC2(CO1)COCOC2,–,–,48.3 °C,–,–,–,–
CC(C)(C)c1cccc(C(C)(C)C)n1,–,–,2.2 °C,–,–,–,–
CC[C@H](CC[C@@H](C)[C@H]1CC[C@H]2[C@@H]3CC=C4C[C@@H](O)CC[C@]4(C)[C@H]3CC[C@]12C)C(C)C,–,–,144 °C,–,–,–,–
Nc1cc(Cl)ccc1O,–,–,140 °C,–,–,–,–
O=C(O)C(O)c1ccc(Br)cc1 (centres undefined),–,–,118 °C,–,–,–,–
CCC1CCC(C)C1 (centres undefined),–,0.799,–,–,–,–,–
COC(=O)/C=C\C(=O)OC,198 °C,-0.523,–,–,–,–,–
COc1cccc(OC)c1O,261 °C,–,56.5 °C,–,–,-6.64,–
CCC(O)CO[N+](=O)[O-] (centres undefined),–,–,–,–,–,-6.76,–
OCCC1CCCCC1,208 °C,-0.78,-20 °C,–,–,–,–
O=C1OC(=O)c2c(Cl)c(Cl)c(Cl)c(Cl)c21,–,–,254 °C,not readily biodegradable,–,–,–
CC(=O)Oc1ccc(C(=C2CCCCC2)c2ccc(OC(C)=O)cc2)cc1,–,–,136 °C,–,–,–,–
CCCC(CCC)C(N)=O,–,–,125 °C,–,–,–,–
CC(=O)c1ccccc1Cl,–,–,–,not readily biodegradable,–,–,–
COP(=O)(OC)O/C(C)=C/C(=O)OC(C)c1ccccc1 (centres undefined),–,-4.85,–,–,2,–,–
CC(C)COC(=O)OCC(C)C,190 °C,–,–,–,–,–,–
O=[N+]([O-])c1ccc(O)c(O)c1,–,–,175 °C,–,–,–,–
CC(Cl)(Cl)[N+](=O)[O-],124 °C,1.23,–,–,–,–,–
CC(C)(C)c1ccccc1O,223 °C,-1.05,-6.8 °C,–,–,–,–
Cc1ccc(NC(O)=NC(C)(C)c2ccccc2)cc1,–,-8.47,203 °C,–,–,–,–
CCC(c1ccc2cc(OC)ccc2c1)C(C)(C)C(=O)O (centres undefined),–,–,140 °C,–,–,–,–
CC(C)C(C)c1ccccc1 (centres undefined),187 °C,–,–,–,–,–,–
CCOc1ccccc1C(N)=O,–,–,133 °C,–,–,–,–
COc1cc(OC)nc(Oc2cccc(Oc3nc(OC)cc(OC)n3)c2C(=O)ON=C(c2ccccc2)c2ccccc2)n1,–,–,129 °C,–,–,–,–

SMILES,boiling point,log10 vapour pressure (mmHg),melting point,ready biodegradability,log10 Koc (L/kg),log10 Henry constant (atm·m³/mol),log10 Koa
Brc1ccc2c(c1)Oc1cc(Br)ccc1O2,–,-5.89,145 °C,–,–,–,–
Nc1ccc(C=CC(=O)O)cc1,285 °C,–,122 °C,–,–,–,–
CC(N)CO (centres undefined),174 °C,–,–,–,–,–,–
NC[C@H]1CCCO1,153 °C,–,–,–,–,–,–
C=C(C)C(C)Cl (centres undefined),94 °C,–,–,–,–,–,–
O=C(O)c1ccnc(C(=O)O)c1,–,–,249 °C,readily biodegradable,–,–,–
CC(=O)NCc1c(I)c(NC(C)=O)c(I)c(C(=O)O)c1I,–,–,255 °C,–,–,–,–
CC(=O)[C@@H]1CC[C@H]2[C@@H]3CCC4=CC(=O)CC[C@]4(C)[C@H]3C(=O)C[C@]12C,–,–,172 °C,–,–,–,–
Nc1cc(C(Cl)=C(Cl)Cl)c(S(N)(=O)=O)cc1S(N)(=O)=O,–,–,203 °C,–,–,–,–
C=C(C)c1ccc(C(C)(C)N=C=O)cc1,–,-2.33,–,–,–,–,–
CC(C)(Cl)CCCl,147 °C,–,–,–,–,–,–
CC[C@H]1CC[C@H](C)NC1,–,0.458,–,–,–,–,–
CCOC(=O)C1CC(=O)C(=C(O)C2CC2)C(=O)C1 (centres undefined),–,-4.79,36 °C,–,–,–,–
FC(F)(Cl)Br,-3.7 °C,3.31,-160 °C,–,–,–,–
CCCCCCCCCCCCOC(=O)c1cc(O)c(O)c(O)c1,–,–,96.5 °C,–,–,–,–
Cc1ccccc1NCCO,286 °C,–,–,–,–,–,–
S=C(SN1CCOCC1)N1CCOCC1,–,–,139 °C,–,–,–,–
CC(=O)c1cccc(C#N)c1,–,–,99 °C,–,–,–,–
CC(=O)O[C@@]12CO[C@@H]1C[C@H](O)[C@@]1(C)C(=O)[C@H](O)C3=C(C)[C@@H](OC(=O)[C@H](O)[C@@H](NC(=O)OC(C)(C)C)c4ccccc4)C[C@@](O)([C@@H](OC(=O)c4ccccc4)[C@H]21)C3(C)C,–,–,232 °C,–,–,–,–
CC1=NCCO1,111 °C,–,–,–,–,–,–
Oc1ccc2c(c1)[C@@]13CCCC[C@H]1[C@@H](C2)N(CC1CC1)CC3,–,–,188 °C,–,–,–,–
Cc1ccc(C(=O)NN)cc1,–,–,117 °C,–,–,–,–
CC(C)COCC(C)C,123 °C,1.19,–,–,–,–,3.4
CCCCC(=O)CCC,163 °C,–,–,–,–,–,–

SMILES,boiling point,log10 vapour pressure (mmHg),melting point,ready biodegradability,log10 Koc (L/kg),log10 Henry constant (atm·m³/mol),log10 Koa
CNP(=O)(NC)Oc1ccccc1,–,–,102 °C,–,1.51,–,–
CCCC(C)CCN (centres undefined),149 °C,–,–,–,–,–,–
CCCC(=O)OCc1ccco1,212 °C,–,–,–,–,–,–
S=C=Nc1ccc(Cl)cc1,250 °C,–,46 °C,–,–,–,–
Clc1cccc(-c2c(Cl)c(Cl)c(Cl)c(Cl)c2Cl)c1Cl,–,–,–,–,–,-4.85,–
Clc1cccc(Cl)c1Br,242 °C,–,65 °C,–,–,–,–
CCc1oc2ccccc2c1C(=O)c1cc(I)c(O)c(I)c1,–,–,167 °C,–,–,–,–
CCCCOCc1ccccc1,223 °C,–,–,–,–,–,–
Nc1ccccc1C=O,–,–,39 °C,–,–,–,–
COc1cc(Cl)ccc1O,241 °C,–,16.5 °C,–,–,–,–
Nc1cccc2cnccc12,–,–,128 °C,–,–,–,–
CCCCC(CCCC)c1ccncc1,–,–,–,readily biodegradable,–,–,–
C/C(=C(\CCOC(=O)c1ccccc1)SS/C(CCOC(=O)c1ccccc1)=C(/C)N(C=O)Cc1cnc(C)nc1N)N(C=O)Cc1cnc(C)nc1N,–,–,146 °C,–,–,–,–
CCCC(C(=O)OCC)C(=O)OCC,221 °C,–,–,–,–,–,–
CN(C)C(=O)OC1N=C(c2ccccc2)c2cc(Cl)ccc2N(C)C1=O (centres undefined),–,–,174 °C,–,–,–,–
ClCc1cccc2ccccc12,292 °C,–,32 °C,–,–,–,–
CNC(=O)Oc1ccccc1C1OCCO1,–,-6.52,114 °C,–,1.6,–,–
Clc1ccc(Cl)nn1,–,–,67.5 °C,–,–,–,–
COc1cccc([N+](=O)[O-])c1C,–,–,55 °C,–,–,–,–
C=C[C@H]1C[N@@]2CC[C@H]1C[C@H]2[C@H](O)c1ccnc2ccc(OC)cc12.Cl,–,–,159 °C,–,–,–,–
CC1(C)CCCc2ccccc21,221 °C,–,–,–,–,–,–
Oc1c(F)c(F)c(F)c(F)c1F,146 °C,0.464,32.8 °C,–,–,–,–
C=C(C)C(=O)OCCCCCCCCCCCC,–,–,-7 °C,–,–,–,–
C[C@@H]1C[C@H](N(C)C)[C@@H](O)[C@H](O[C@H]2[C@@H](C)C[C@@H](C)C(=O)C=C[C@@H](C)[C@@H]([C@@H](C)O)OC(=O)[C@@H]2C)O1,–,–,157 °C,–,–,–,–

SMILES,boiling point,log10 vapour pressure (mmHg),melting point,ready biodegradability,log10 Koc (L/kg),log10 Henry constant (atm·m³/mol),log10 Koa
CCCCOc1ccc(OCCCC)cc1,–,–,45.5 °C,–,–,–,–
Cc1ccc(Br)s1,178 °C,–,–,–,–,–,–
CC(C)(C)CN,82 °C,–,–,–,–,–,–
CSc1ccc(C(=O)O)cc1,–,–,194 °C,–,–,–,–
Cc1cc(C)n(C)n1,170 °C,–,–,–,–,–,–
CC(=O)N=c1sc(S(N)(=O)=O)nn1C,–,–,214 °C,–,–,–,–
CC1CS(=O)(=O)CCN1N=Cc1ccc([N+](=O)[O-])o1 (centres undefined),–,–,181 °C,–,–,–,–
CC(=O)C(C)C,94.3 °C,1.72,-92 °C,readily biodegradable,–,–,3.04
CN1CCN(CCCN2c3ccccc3Sc3ccccc32)CC1,–,–,52 °C,–,–,–,–
CCOP(=S)(OCC)Oc1ccc(=O)n(-c2ccccc2)n1,–,-7.96,55 °C,–,–,–,–
CC(Cl)C[N+](=O)[O-] (centres undefined),172 °C,–,–,–,–,–,–
Cc1cc(C)nc(NS(=O)(=O)c2ccc(N)cc2)n1,–,–,198 °C,–,–,–,–
CC(C)(C)C(=O)C1C(=O)c2ccccc2C1=O,–,–,109 °C,–,–,–,–
CCCCOC(=O)CC(O)(CC(=O)OCCCC)C(=O)OCCCC,–,–,-20 °C,–,–,–,–
NC(=O)C=Cc1ccccc1,–,–,149 °C,–,–,–,–
CCCCC(CC)CCl (centres undefined),172 °C,0.0792,–,–,–,–,–
CC(C)(C)CC(=O)OCC(=O)[C@@]12OC(C)(C)O[C@@H]1C[C@H]1[C@@H]3CCC4=CC(=O)C=C[C@]4(C)[C@@]3(F)[C@@H](O)C[C@@]12C,–,–,295 °C,–,–,–,–
CCCCCC#CC(=O)OC,218 °C,–,–,–,–,–,–
CSCCl,105 °C,–,–,–,–,–,–
Cc1c(NC(=O)C(C)N(C)C)c(=O)n(-c2ccccc2)n1C (centres undefined),–,–,181 °C,–,–,–,–
O=C(O)CCc1ccco1,229 °C,–,58 °C,–,–,–,–
Cc1c(C)c2c3ccccc3ccc2c2ccccc12,–,–,129 °C,–,–,–,–
Cc1cc(C)c2ncccc2c1,268 °C,–,–,–,–,–,–

# Same assay, conditions: fish
SMILES,log10 BCF,log10 biotransformation half-life (days)
ClC(Cl)(Cl)C(Cl)(Cl)Cl,2.71,0.76
C=C(C)CCCCCCCCC,–,0.17
Clc1ccc(Oc2ccc(Cl)c(Cl)c2)cc1Cl,4.51,–
Clc1cccc(-c2c(Cl)ccc(Cl)c2Cl)c1,–,2.47
CCOP(=S)(OCC)Oc1ccc(=O)n(-c2ccccc2)n1,0.67,-0.7
